Among the data in PubChem BioAssay (NCI) are TGI values, retold here.

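How tested: cells in 96-well plates exposed to compound for 48 hours at five concentrations. TGI is the concentration that stops growth completely.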 Where a SMILES comes first, the peptide text is derived from it. [ ]: non-standard residue; d: D form. The star is where a group is joined. NMeAc5c = CNC1(C(=O)O)CCCC1; Boc = CC(C)(C)OC(=O)*; OBn = c1ccc(CO*)cc1 Where only a bound is given, the exact number is not on record here.

Test systems include TK-10 renal; UACC-257 melanoma; UACC-62 melanoma; ACHN renal; MALME-3M melanoma; HT29 colon; RXF 393 renal; NCI-H226 lung; NCI/ADR-RES ovarian; OVCAR-4 ovarian; UO-31 renal.
Holding throughout (assay): NCI-60 cell line screen, 48 h

`Nc1nc(SCCc2ccccc2)c2[nH]cnc2n1`: the TGI in the assay with TK-10 renal is 67.9 µM; with UACC-257 melanoma, 67.5 µM; in the assay on UACC-62 melanoma it was over 100 µM; with ACHN renal, over 100 µM; in the assay on MALME-3M melanoma it was over 100 µM; in the assay on HT29 colon, over 100 µM. For the same compound, the TGI with RXF 393 renal, in the assay with NCI-H226 lung, in the assay with NCI/ADR-RES ovarian, with OVCAR-4 ovarian and in the assay on UO-31 renal was over 100 µM in each case.

Take `C=CCN1C[C@H](C)N([C@H](c2ccc(C(=O)NC(CC)CC)cc2)c2cccc(OC)c2)C[C@H]1C`: the TGI with TK-10 renal is over 100 µM; in the assay on UACC-257 melanoma, 70.7 µM; with UACC-62 melanoma, 51.1 µM; with ACHN renal it was over 100 µM; in the assay on MALME-3M melanoma it was 43.5 µM; in the assay on HT29 colon, 61.1 µM. Further, the TGI was over 100 µM in the assay on RXF 393 renal; over 100 µM in the assay with NCI-H226 lung; over 100 µM with NCI/ADR-RES ovarian; over 100 µM in the assay on OVCAR-4 ovarian; 52.7 µM with UO-31 renal.

Regarding `C[C@]12CCC(O)CC1=CC[C@@H]1[C@@H]2CC[C@]2(C)C(=O)[C@H](n3ccnc3)C[C@@H]12` (stereo partly specified), the TGI with TK-10 renal, in the assay with UACC-257 melanoma, with UACC-62 melanoma, in the assay on ACHN renal, in the assay with MALME-3M melanoma and in the assay with HT29 colon was over 100 µM throughout. Moreover, the TGI with RXF 393 renal, with NCI-H226 lung, in the assay with NCI/ADR-RES ovarian, in the assay on OVCAR-4 ovarian and in the assay on UO-31 renal was over 100 µM in each case.

For the compound `C[C@@H](NC(=O)[C@@H]1C[C@]1(C)COC(=O)c1cc([N+](=O)[O-])cc([N+](=O)[O-])c1)c1cccc2ccccc12`, the TGI with TK-10 renal was over 100 µM; in the assay with UACC-257 melanoma it was over 100 µM; in the assay with UACC-62 melanoma, over 100 µM; in the assay on ACHN renal it was over 100 µM; with MALME-3M melanoma, 51 µM; with HT29 colon, over 100 µM. Besides, the TGI in the assay on RXF 393 renal, in the assay on NCI-H226 lung, with NCI/ADR-RES ovarian, in the assay with OVCAR-4 ovarian and in the assay with UO-31 renal was over 100 µM throughout.

On to `COc1cccc(C(=O)O[C@H]2[C@@H]3[C@]4(OC(C)=O)CO[C@@H]4C[C@H](O)[C@@]3(C)C(=O)[C@H](OC(C)=O)C3=C(C)[C@@H](OC(=O)[C@H](O)[C@@H](NC(=O)OC(C)(C)C)c4ccco4)C[C@]2(O)C3(C)C)c1`, for which the TGI is 27.4 µM with TK-10 renal; over 37.5 µM in the assay on UACC-257 melanoma; over 27.6 µM with UACC-62 melanoma; over 37.5 µM in the assay with ACHN renal; over 37.5 µM in the assay on MALME-3M melanoma; 0.133 µM in the assay on HT29 colon. Besides, the TGI was over 9.16 µM in the assay on RXF 393 renal; over 15.2 µM in the assay with NCI-H226 lung; over 18.3 µM with NCI/ADR-RES ovarian; over 37.5 µM in the assay with OVCAR-4 ovarian; over 35 µM with UO-31 renal.

Consider `CN(C(=O)C(Cc1ccccc1)NC(=O)OC(C)(C)C)C1(C(=O)NC(Cc2ccccc2)C(=O)OCc2ccccc2)CCCC1` (stereo not drawn) (Boc-Phe-[NMeAc5c]-Phe-OBn; configuration not given here), for which the TGI with TK-10 renal was over 100 µM; with UACC-257 melanoma, over 100 µM; in the assay on UACC-62 melanoma, 71.2 µM; in the assay on ACHN renal it was over 100 µM; in the assay with MALME-3M melanoma it was over 100 µM; with HT29 colon it was 56.7 µM. The TGI was over 100 µM in the assay on RXF 393 renal; over 100 µM in the assay with NCI-H226 lung; over 100 µM in the assay on NCI/ADR-RES ovarian; over 100 µM in the assay with OVCAR-4 ovarian; 82.6 µM with UO-31 renal.

With `c1ccc(N=c2sc3ccccc3nc2Nc2ccccc2)cc1`, the TGI with TK-10 renal, with UACC-257 melanoma, with UACC-62 melanoma, in the assay with ACHN renal, in the assay with MALME-3M melanoma and in the assay with HT29 colon was over 100 µM each time. Moreover, the TGI in the assay with RXF 393 renal, in the assay on NCI-H226 lung, in the assay with NCI/ADR-RES ovarian, in the assay with OVCAR-4 ovarian and in the assay with UO-31 renal was over 100 µM throughout.

For the compound `N#Cc1c(-c2ccccc2)/c(=C\Nc2cccc(C(F)(F)F)c2)c(=O)n2c1nc1ccccc12`, the TGI is over 100 µM in the assay with TK-10 renal; over 100 µM in the assay on UACC-257 melanoma; over 100 µM in the assay with ACHN renal; over 100 µM with MALME-3M melanoma; 78.1 µM in the assay with RXF 393 renal; 80.9 µM with NCI-H226 lung. For the same compound, the TGI is 80.4 µM with NCI/ADR-RES ovarian, over 100 µM in the assay with OVCAR-4 ovarian and 22.1 µM with UO-31 renal.

Consider `O=C1/C(=C\c2ccccc2)C(NC2CCCCC2)c2ccccc21` (stereo unspecified), for which the TGI in the assay with TK-10 renal was 2.59 µM; in the assay on UACC-257 melanoma, 2.69 µM; in the assay with UACC-62 melanoma, 6.2 µM; with ACHN renal, 2.34 µM; in the assay on MALME-3M melanoma, 3.01 µM; in the assay with RXF 393 renal, 2.93 µM. Moreover, the TGI amounted to 14.1 µM with NCI-H226 lung, 98.5 µM in the assay with NCI/ADR-RES ovarian, 3.93 µM with OVCAR-4 ovarian and 2.31 µM with UO-31 renal.

Take `CC1(C)N=[N+]([O-])C1(C)C`: the TGI with TK-10 renal, in the assay with UACC-257 melanoma, in the assay with UACC-62 melanoma, in the assay on MALME-3M melanoma, in the assay on HT29 colon and with RXF 393 renal was over 100 µM throughout. Also, the TGI in the assay with NCI-H226 lung, in the assay on NCI/ADR-RES ovarian, with OVCAR-4 ovarian and in the assay on UO-31 renal was over 100 µM throughout.

Turning to `N#CCCC1C(C#N)C2(Cl)CC1(Cl)C(Cl)=C2Cl` (stereo unspecified), the TGI with TK-10 renal, in the assay with UACC-62 melanoma, in the assay with ACHN renal, in the assay on MALME-3M melanoma, in the assay with HT29 colon and with RXF 393 renal was over 10 µM each time. The TGI in the assay on NCI-H226 lung, in the assay on NCI/ADR-RES ovarian, in the assay on OVCAR-4 ovarian and in the assay on UO-31 renal was over 10 µM each time.

Regarding `Nn1c(-c2ccccc2)nn(C(=O)c2ccccc2)c1=O`, the TGI with TK-10 renal, with UACC-257 melanoma, with ACHN renal, in the assay on MALME-3M melanoma, in the assay with HT29 colon and in the assay with RXF 393 renal was over 100 µM each time. In addition, the TGI with NCI-H226 lung, with NCI/ADR-RES ovarian, in the assay with OVCAR-4 ovarian and in the assay on UO-31 renal was over 100 µM each time.

Turning to `COc1ccc2cc(NC(=O)N/N=C\c3ccc([N+](=O)[O-])cc3)ccc2c1`, the TGI is over 100 µM in the assay with UACC-257 melanoma; over 100 µM in the assay on UACC-62 melanoma; over 100 µM in the assay with ACHN renal; over 100 µM in the assay on MALME-3M melanoma; over 100 µM with HT29 colon; 45.1 µM in the assay with RXF 393 renal. In addition, the TGI was over 100 µM with NCI-H226 lung, 97.2 µM in the assay with NCI/ADR-RES ovarian, 5.74 µM with OVCAR-4 ovarian and 46.4 µM in the assay on UO-31 renal.
